Results as given in the supplement of paper PMC10307832.

How the values were obtained:
Assay in all cases: relative viability (nuclei count vs DMSO), 5 days (fraction); higher = more cells survive
[1] = compound: C[C@@]1(C(=O)Nc2ccc(F)nc2)CCCN1c1nc(Nc2cc(C3CC3)n[nH]2)c2cccn2n1 + CC(C)C[C@H](NC(=O)[C@H](Cc1ccccc1)NC(=O)c1cnccn1)B(O)O [Bortezomib] (partner 0.002 µM)
How it was run: (§1)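 After 5 days of treatment, lung cancer cells in 1536-well plates were fixed and stained in a single step (final 0.05% Triton X-100, 1% formaldehyde, 1 ug/ml Hoechst) and their nuclei counted on 4× images. Treatment had been applied by pin tool the day after seeding as one drug alone or as a fixed anchor-drug dose with five library-drug doses (not always all listed) in √10 steps. Relative viability is the nuclei count of treated wells divided by that of vehicle wells, and values are medians of duplicate plates.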

[2] = compound: C[C@@]1(C(=O)Nc2ccc(F)nc2)CCCN1c1nc(Nc2cc(C3CC3)n[nH]2)c2cccn2n1 + Nc1nc2[nH]cc(CCc3ccc(C(=O)N[C@@H](CCC(=O)O)C(=O)O)cc3)c2c(=O)[nH]1 [Pemetrexed] (partner 0.2 µM)
How it was run: as §1

[3] = compound: C[C@@]1(C(=O)Nc2ccc(F)nc2)CCCN1c1nc(Nc2cc(C3CC3)n[nH]2)c2cccn2n1 + Cc1cc(Nc2cc(N3CCN(C)CC3)nc(Sc3ccc(NC(=O)C4CC4)cc3)n2)n[nH]1 [Tozasertib] (partner 0.1 µM)
How it was run: as §1

Motesanib + Dasatinib = compound: CC1(C)CNc2cc(NC(=O)c3cccnc3NCc3ccncc3)ccc21 [Motesanib] + Cc1nc(Nc2ncc(C(=O)Nc3c(C)cccc3Cl)s2)cc(N2CCN(CCO)CC2)n1 [Dasatinib] (partner 0.075 µM)
How it was run: as §1

| Cell Line | relative viability ([1]; first compound 0.04 µM) | relative viability ([1]; first compound 0.1265 µM) | relative viability ([1]; first compound 0.4 µM) | relative viability ([1]; first compound 1.265 µM) | relative viability ([2]; first compound 0.04 µM) | relative viability ([2]; first compound 0.1265 µM) | relative viability ([2]; first compound 0.4 µM) | relative viability ([2]; first compound 1.265 µM) | relative viability ([3]; first compound 0.04 µM) | relative viability ([3]; first compound 0.1265 µM) | relative viability ([3]; first compound 0.4 µM) | relative viability ([3]; first compound 1.265 µM) | relative viability (Motesanib + Dasatinib; first compound 0.01 µM) | relative viability (Motesanib + Dasatinib; first compound 0.03162 µM) | relative viability (Motesanib + Dasatinib; first compound 0.1 µM) | relative viability (Motesanib + Dasatinib; first compound 0.3162 µM) | relative viability (Motesanib + Dasatinib; first compound 1 µM) |
| --- | --- | --- | --- | --- | --- | --- | --- | --- | --- | --- | --- | --- | --- | --- | --- | --- | --- |
| IA-LM | 0.844 | 0.933 | 0.807 | 0.48 | – | – | – | – | – | – | – | – | – | – | – | – | – |
| LC-2-ad | 1.06 | 0.845 | 0.805 | 0.411 | 0.28 | 0.242 | 0.263 | 0.211 | 0.403 | 0.393 | 0.288 | 0.296 | 0.539 | 0.575 | 0.745 | 0.503 | 0.496 |
| LCLC-97TM1 | 0.637 | 0.189 | 0.132 | 0.0641 | 0.137 | 0.155 | 0.149 | 0.143 | 0.122 | 0.103 | 0.0881 | 0.126 | 0.838 | 0.801 | 0.797 | 0.86 | 0.773 |
| LCLC-103H | 1.07 | 1.08 | 0.788 | 0.958 | 0.49 | 0.509 | 0.44 | 0.41 | 0.474 | 0.472 | 0.394 | 0.473 | 0.432 | 0.444 | 0.44 | 0.504 | 0.52 |
| LK-2 | – | – | – | – | 0.175 | 0.195 | – | 0.156 | 0.178 | 0.169 | 0.187 | 0.175 | 0.322 | 0.212 | – | 0.379 | 0.245 |
| LOU-NH91 | 0.482 | 0.519 | 0.481 | 0.493 | 0.394 | 0.409 | 0.353 | 0.346 | 0.641 | 0.635 | 0.56 | 0.447 | 0.515 | 0.536 | 0.621 | 0.594 | 0.586 |
| LU99A | 0.984 | 0.837 | 0.623 | 0.445 | 0.187 | 0.165 | 0.183 | 0.165 | 0.237 | 0.222 | 0.234 | 0.182 | 0.636 | 0.453 | 0.681 | 0.606 | 0.524 |
| LXF-289 | 1.01 | 0.929 | 0.961 | 1 | 0.9 | 0.921 | 0.804 | 0.859 | 0.167 | 0.121 | 0.14 | 0.14 | 0.258 | 0.148 | 0.257 | 0.256 | 0.267 |
| NCI-H23 | 0.642 | 0.44 | 0.472 | 0.442 | 0.506 | 0.437 | 0.399 | 0.312 | 0.382 | 0.269 | 0.316 | 0.516 | 0.881 | 0.737 | 0.662 | 0.892 | 0.746 |
| NCI-H358 | – | – | – | – | 0.15 | 0.155 | 0.117 | 0.137 | 0.0856 | 0.0931 | 0.0786 | 0.0689 | 0.14 | 0.155 | 0.133 | 0.2 | 0.158 |
| NCI-H522 | – | – | – | – | 0.832 | 1.25 | 0.706 | 0.933 | 0.571 | 0.459 | 0.537 | 0.562 | 0.754 | 0.835 | 0.921 | 0.862 | 0.864 |
